In US4443448A, “Indane derivatives, pharmaceutical compositions thereof and method of preparation” (priority 1980, dated 1984):
Like-named read-outs stand apart in the source and are kept apart here.

Columns and labels:
methylphenidate = assay: Methylphenidate antagonism in mice; type: in vivo; conditions: for ED50: Mus musculus, ip, 2 h, read-out: MePh antag. ED50 2 hr i.p., mice, test substance i.p., 2 hr before methylphenidate 60 mg/kg s.c.
Description: Methylphenidate antagonism (ED50 mg/kg i.p.)
(§1) Perspex observation cages without bottom and lid, consisting of 5 sections each measuring 12×25×30 cm.
3×2 mice are used for each dose level. Two or 24 hours after injection of test substance, methylphenidate, 60 mg/kg, is injected s.c. After administration of methylphenidate the mice are placed in the observation cages, 2 in each cage, where they remain for exactly 1 hour. The cages were placed on corrugated paper, the corrugations facing upwards. It is examined whether the mice have been biting the corrugated paper or not. […] If one or more of the control pairs have not been biting, the test has to be repeated on a new set of mice.
The result is stated in fractions: 0/3, 1/3, 2/3 and 3/3 where 0, 1, 2 and 3 are the number of pairs which have not been biting on receipt of the dose in question.

amphetamine = assay: Amphetamine antagonism in rats; type: in vivo; conditions: rats, p.o., amphetamine 10 mg/kg base i.v.; for ED50: Rattus norvegicus, po, read-out: Amphetamine antag. ED50 p.o.
Description: Amphetamine antagonism (ED50 mg/kg i.p.)
as §1
The test substance is given p.o. in a reasonable dose based on the determined LD50. Two or 24 hours later an intravaneous injection of amphetamine sulphate 13.6 mg/kg (10 mg/kg amphetamine base) is given, after which the rats are placed individually in the cages. The cages are placed on white corrugated paper. Five rats are used for each dose level. Observations are made after 55 minutes and 65 minutes-observation time: 1 minute. The animals are observed for stereotypy (movements of the head, compulsive gnawing). […] If the compound has full antagonistic effect another group of rats is used at a lower dose. […] The result is stated as fractions: 0/5, 1/5, 2/5, 3/5, 4/5 and 5/5, where 0, 1, 2, 3, 4 and 5 indicate the number of rats which have not shown stereotypy at the dose in question. The results are calculated as ED50 in mg/kg.

in vivo [1] = assay: in vivo; set-up: species or system rats; conditions: for Ratio catalep./Amphet.: catalepsy ED50 / amphetamine antagonism ED50; for ED50: rat, in vivo, po
Description: A vertical wire netting (50 cm×49 cm). The meshes (openings) of the netting are square (1 cm×1 cm). The wire diameter is 2 mm.
The animals are labeled and used in groups of five. The test substance is administered orally (p.o) at 4 dose levels selected from the fixed dose scale.
The animals are placed in the middle of the vertical wire netting 60, 120, 180, 240, 300 and 360 minutes after administration of the test compound. The animals are considered cataleptic when they remain immobile during a period of 15 seconds.
This cataleptic reaction is designated +. If the rats are "atonic" and passively slide down the wire mesh they are considered not cataleptic. If the animals climb up and down the wire mesh they are nor cataleptic.
In both situations the designation--is used.

[2] = Mouse grid shock (analgesia); type: in vivo; conditions: mice, minimal effective dose, in mg/kg
Description: The mouse grid consists of a perspex cage with wire grid bottom and a perspex lid, on which is placed a microphone sensitive to the frequency of a mouse squeak. A stimulator with motordriven potentiometer applies a sequence of square wave impulses of continuously increasing milliamperage to the grid. Frequency of impulses 20 cycles/sec., duration 5 msec. Milliamperage is recorded on a digital amperemeter connected to the stimulator. Activation of the microphone by a mouse-squeak cuts off the current and the final milliamperage appears on the meter.
Five mice are used for each dose level. Each mouse serves as its own control.
Prior to the administration of test substance the animals are placed on the grid one at a time, and the pain threshold is determined by increasing the current intensity until the mouse squeaks. The pain threshold may be read on the milliamperemeter. Fifteen minutes and 30 minutes after administration of test substance the mice are tested again and the pain thresholds recorded.
Analgesic effect is present, when the pain threshold is increased over the pre-dosing value (control value). The results are stated as % increase in pain threshold calculated on the basis of the control value.
The registration can also be done as an on-line procedure. In this case the punching instruction and punching cards will be provided automatically and the results will be registered as a minimal effective dose (MED) determined after van der Waerdens X-test.

in vivo [3] = conditions: iv
[4] = rats, p.o., strongest effect within first 6 hours, read-out: Catalep. (catalepsy wire mesh, rat, max, ED50)

| Structure (SMILES) | ED50 (methylphenidate) [mg/kg] | ED50 (amphetamine) [mg/kg] | Ratio catalep./Amphet. (in vivo [1]) | ED50 (in vivo [1]; [4]) [mg/kg] | MED Grid Shock [2] | LD50 (in vivo [3]) [mg/kg] | MePh antag. ED50 2 hr i.p. (methylphenidate; mice, test substance i.p., 2 hr before methylphenidate 60 mg/kg s.c., 120 min) [mg/kg] | Amphetamine antag. ED50 p.o. (amphetamine) [mg/kg] | Catalep. (catalepsy wire mesh, rat, max, ED50) (in vivo [1]; rats, p.o., strongest effect within first 6 hours) [mg/kg] | ED50 (in vivo [1]; Catalep. (catalepsy wire mesh, rat, max, ED50)) [mg/kg] |
| --- | --- | --- | --- | --- | --- | --- | --- | --- | --- | --- |
| CSc1ccc2c(c1)[C@H](N1CCN(C)CC1)C[C@H]2c1ccc(F)cc1 (relative stereo) [Lu 17-055] | 1.2 | 10 | 0.7 | 7.2 | 5 | 68 | – | – | – | – |
| O[C@H]1CC[C@H](CN2CCN(C3CC(c4ccc(F)cc4)c4ccc(F)cc43)CC2)CC1 (relative stereo) [Lu 17-059] | 4.3 | 28 | > 1.4 | > 40 | 5 | 94 | – | – | – | – |
| OCCN1CCN([C@@H]2C[C@@H](c3ccc(F)cc3)c3cc(F)ccc32)CC1 (relative stereo) [Lu 17-075] | 6 | > 40 | – | > 40 | 2.5 | 80 | – | – | – | – |
| CN1CCN([C@@H]2C[C@@H](c3ccc(F)cc3)c3ccc(Cl)cc32)CC1 (relative stereo) [Lu 17-121] | 2 | 10 | 0.3 | 3 | 0.63 | 68 | – | – | – | – |
| OCCCN1CCN([C@@H]2C[C@@H](c3ccc(F)cc3)c3ccc(Cl)cc32)CC1 (relative stereo) [Lu 17-127] | 0.4 | 0.3 | 1.7 | 0.5 | 0.31 | 80 | – | – | – | – |
| OCCN1CCN([C@@H]2C[C@@H](c3ccccc3)c3ccc(C(F)(F)F)cc32)CC1 (relative stereo) [Lu 18-089] | 2.2 | 5 | 0.5 | 2.7 | 2.5 | 69 | – | – | – | – |
| CN1CCN(C2CC(c3ccc(F)cc3)c3ccc(F)cc32)CC1 (single isomer, unassigned; (+)) [Lu 17-151, (+) 1-Methyl-4-(3-(4'-fluorophenyl)-6-fluoro-1-indanyl) piperazine] | – | – | 2.7 | – | 0.63 | 113 | 1.0 | 6.1 | 16.4 | – |
| CSc1ccc2c(c1)C(N1CCN(CCCO)CC1)CC2c1ccc(F)cc1 (stereo not shown) [Lu 17-068] | 0.8 | 1.8 | 0.7 | 1.3 | 0.31 | 94 | – | – | – | – |
| Cc1ccc2c(c1)C(N1CCN(C(C)C)CC1)CC2c1ccc(F)cc1 (stereo not shown) [Lu 17-069] | 0.8 | 5.6 | 1.2 | 6.7 | 0.63 | 56 | – | – | – | – |
| Fc1ccc(C2CC(N3CCN(CC4CCCCC4)CC3)c3cc(F)ccc32)cc1 (stereo not shown) [Lu 17-100] | 4 | > 40 | – | 40 | 10 | 93 | – | – | – | – |
| CSc1ccc2c(c1)C(N1CCN(C(C)C)CC1)CC2c1ccc(F)cc1 (stereo not shown) [Lu 17-111] | 2.3 | 7.8 | 0.9 | 7.1 | 1.3 | 69 | – | – | – | – |
| CC(C)N1CCN(C2CC(c3ccc(F)cc3)c3ccc(Cl)cc32)CC1 (stereo not shown) [Lu 17-129] | 0.8 | 1.8 | 0.4 | 0.8 | 5 | 80 | – | – | – | – |
| CC(O)CN1CCN(C2CC(c3ccc(F)cc3)c3ccc(F)cc32)CC1 (stereo not shown) [Lu 17-143, 1-(2-hydroxy-1-propyl)-4-(3-(4'-fluorophenyl)-6-fluoro-1-indanyl)piperazine] | 1.2 | 5.4 | 3.1 | 16.6 | < 1.3 | 130 | – | – | – | – |
| COc1ccc2c(c1)C(N1CCN(CCO)CC1)CC2c1ccc(F)cc1 (stereo not shown) [Lu 18-006] | 8.6 | 16.6 | 0.7 | 12 | 5 | 113 | – | – | – | – |
| OCCN1CCN(C2CC(c3ccc(F)cc3)c3ccc(C(F)(F)F)cc32)CC1 (stereo not shown) [Lu 18-012] | 0.03 | 0.16 | 2 | – | 0.6 | 56 | – | – | – | 0.3 |
| CC(C)c1ccc2c(c1)C(N1CCN(CCO)CC1)CC2c1ccc(F)cc1 (stereo not shown) [Lu 18-020] | 4.4 | 9.4 | 0.8 | 7.8 | 5 | 57 | – | – | – | – |
| CN1CCN(C2CC(c3ccc(F)cc3)c3ccc(C(F)(F)F)cc32)CC1 (stereo not shown) [Lu 18-023] | 1.1 | 0.2 | 2 | 0.4 | 1.25 | 94 | – | – | – | – |
| CN1CCN(C2CC(c3ccc(F)cc3)c3ccc(S(C)(=O)=O)cc32)CC1 (stereo not shown) [Lu 18-040] | 8.3 | 12 | 0.8 | 10 | > 20 | 130 | – | – | – | – |
| OCCCN1CCN(C2CC(c3ccc(F)cc3)c3ccc(C(F)(F)F)cc32)CC1 (stereo not shown) [Lu 18-048] | 0.12 | 0.16 | 0.4 | 0.07 | 1.3 | 57 | – | – | – | – |
| CC(C)N1CCN(C2CC(c3ccc(F)cc3)c3ccc(C(F)(F)F)cc32)CC1 (stereo not shown) [Lu 18-050] | 0.44 | 0.22 | 2.4 | 0.52 | 10 | 57 | – | – | – | – |
